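Five compound concentrations were applied to cells in 96-well plates for 48 hours; endpoints were derived by simple linear interpolation of the resulting dose-response curve. GI50 marks 50% less growth. The concentration for full growth arrest is given as TGI.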
Legend:
Assay in all cases: NCI-60 cell line screen, 48 h
ACHN renal = tested on: ACHN renal
K-562 leukemia = tested on: K-562 leukemia
OVCAR-5 ovarian = tested on: OVCAR-5 ovarian
SF-295 CNS = tested on: SF-295 CNS
T-47D breast = tested on: T-47D breast
CAKI-1 renal = tested on: CAKI-1 renal
TK-10 renal = tested on: TK-10 renal

Row | SMILES | TGI (ACHN renal) | GI50 (K-562 leukemia) | TGI (K-562 leukemia) | GI50 (OVCAR-5 ovarian) | TGI (OVCAR-5 ovarian) | GI50 (SF-295 CNS) | TGI (SF-295 CNS) | TGI (T-47D breast) | GI50 (CAKI-1 renal) | TGI (CAKI-1 renal) | GI50 (ACHN renal) | GI50 (T-47D breast) | GI50 (TK-10 renal) | TGI (TK-10 renal)
1 | CC(C)[C@H](O)C(=O)N[C@H]1Cc2ccc3c(c2)[C@]24C5=C(N=C(O5)[C@H](C(C)C)NC1=O)c1nc(Cl)c(o1)-c1c(Cl)[nH]c5cccc(c15)-c1cccc2c1N[C@H]4O3 | 5.3 µM | < 0.001 µM | > 10 µM | 4.26 µM | > 10 µM | < 0.001 µM | 3.87 µM | > 10 µM | 0.00468 µM | 3.29 µM | – | – | – | –
2 | O=C(Nn1c2c(sc1=NC1CC1)C(=O)c1ccccc1C2=O)c1cc2ccc1CCc1ccc(cc1)CC2 | 3.03 µM | 2.43 µM | > 100 µM | 1.83 µM | 3.53 µM | 3.55 µM | 12.7 µM | 14.4 µM | 2.48 µM | 14.9 µM | 1.39 µM | 2.49 µM | 18.4 µM | 34.7 µM
3 | CCCCCC/C=C\CCCCCCCCCc1c(O)c(OC)cc(O)c1CN(C)C | 22.5 µM | – | 4.49 µM | – | 29.6 µM | – | 16.2 µM | 4.2 µM | – | 26.9 µM | – | – | – | 28.8 µM
4 | C=CC1=C(C)C(Cc2[nH]c(/C=c3\[nH]/c(=C/C4=NC(=O)C(C)/C4=C\C)c(C)c3CCC(=O)O)c(CCC(=O)OC)c2C)NC1=O (centres undefined) | 77.2 µM | 25.7 µM | 61.9 µM | 37.6 µM | > 100 µM | 37.8 µM | > 100 µM | > 100 µM | 46.3 µM | > 100 µM | 26.3 µM | 36.8 µM | 46.4 µM | > 100 µM
5 | c1cc(-c2cnn3nc(N4CCOCC4)ccc23)nc(NC2CC2)n1 | > 25 µM | > 23.6 µM | > 25 µM | 6.64 µM | > 22.4 µM | 8.72 µM | > 25 µM | > 25 µM | 7.21 µM | > 25 µM | 5.7 µM | 8.08 µM | 7.7 µM | 20.3 µM
6 | CCC(C)c1cnc(CC(C)C)c(=O)[nH]1 (centres undefined) | > 100 µM | – | > 100 µM | – | > 100 µM | – | > 100 µM | > 100 µM | – | > 100 µM | – | – | – | > 100 µM
7 | Oc1oc(-c2ccccc2)nc1/C=C1/C=NN=N1 | > 100 µM | – | > 100 µM | – | > 100 µM | – | > 100 µM | > 100 µM | – | > 100 µM | – | – | – | > 100 µM
8 | COc1cccc2cc(N(C)c3nc(C)nc4ccsc34)ccc12 | 13.3 µM | < 0.01 µM | > 48.6 µM | < 0.01 µM | 17.4 µM | < 0.01 µM | 12.4 µM | > 100 µM | < 0.01 µM | 15.3 µM | < 0.01 µM | < 0.01 µM | 1.87 µM | 24.1 µM
9 | O=C1C(Nc2cccc(O)c2)=C(Sc2ccc(Cl)cc2)C(=O)N1Cc1ccccc1 | 27 µM | 3.81 µM | 29.6 µM | 21.1 µM | 55 µM | 7.5 µM | 24.9 µM | > 100 µM | 18.6 µM | 38.9 µM | 9.33 µM | 29.1 µM | 16.7 µM | 31.8 µM
10 | Cc1sc2c(c1C)C(c1ccc(Cl)cc1)=N[C@@H](CC(=O)Nc1ccc(O)cc1)c1nnc(C)n1-2 | 29.9 µM | 0.499 µM | 60.3 µM | 11.6 µM | 30.3 µM | 2 µM | 22.4 µM | 28.2 µM | 0.0946 µM | 16.2 µM | 1.28 µM | 0.245 µM | 0.0941 µM | 19 µM
11 | COc1cc2c(cc1-c1c(C)noc1C)ncc1[nH]c(=O)n([C@H](C)c3ccccn3)c12 | > 100 µM | 0.75 µM | > 100 µM | 22.4 µM | > 100 µM | 0.649 µM | 57.4 µM | > 100 µM | 0.0939 µM | > 100 µM | 1.2 µM | 1.22 µM | 0.257 µM | 22 µM
12 | CN(C)CCC(=O)NCc1c2nc3ccccc3nc2n2ccccc12 | > 100 µM | > 100 µM | > 100 µM | > 100 µM | > 100 µM | 61.1 µM | > 100 µM | > 100 µM | 60.6 µM | > 100 µM | > 100 µM | > 100 µM | 16 µM | 47.6 µM
13 | C=C(CN(CCN1CCOCC1)CC(=C)c1ccc(C(=O)Nc2ccccc2N)cc1)c1ccc(C(=O)Nc2ccccc2N)cc1 | 13.3 µM | 28.1 µM | > 50 µM | 7.62 µM | 15.2 µM | 8.46 µM | 19.9 µM | 47.6 µM | 9.45 µM | 34.6 µM | 6.04 µM | 8.33 µM | 4.44 µM | 12 µM
14 | Cc1cccc2cc3ccc4ccccc4c3cc12 | > 100 µM | – | > 100 µM | – | > 100 µM | – | > 100 µM | > 100 µM | – | > 100 µM | – | – | – | > 100 µM
15 | O=C(Nc1ccc([N+](=O)[O-])cc1)c1cc2ccccc2cc1O | 16.8 µM | 0.347 µM | > 100 µM | 1.73 µM | 48.2 µM | 1.15 µM | 3.17 µM | 8.89 µM | 0.26 µM | 0.955 µM | 0.38 µM | 0.39 µM | 0.402 µM | 6.82 µM
16 | COc1cc(C(=O)/C=C/c2c(-c3cccs3)nc3ccccn23)cc(OC)c1OC | 5.09 µM | – | – | 2.64 µM | 5.82 µM | 2.24 µM | > 100 µM | 6.79 µM | 2.31 µM | 8.14 µM | 2.09 µM | 1.72 µM | 3.78 µM | 25.4 µM
17 | O=C1/C(=C/c2ccc(C(F)(F)F)cc2)COc2ccc(O)cc21 | 3.53 µM | – | – | 2.18 µM | 5.49 µM | 12.1 µM | 24.9 µM | 4.76 µM | 1.74 µM | 3.85 µM | 1.84 µM | 2.03 µM | 3.7 µM | 14.3 µM
18 | CO[C@H]1/C=C/C[C@H](C)[C@@H](C)S(=O)(=O)NC(=O)c2ccc3c(c2)N(C[C@@H]2CC[C@H]21)C[C@@]1(CCCc2cc(Cl)ccc21)CO3 | 11.8 µM | – | – | 2.91 µM | 11.9 µM | 1.97 µM | 6.05 µM | 10.8 µM | 3.45 µM | 12.9 µM | 3.39 µM | 2.75 µM | 2.8 µM | 11.1 µM

Reference: PubChem BioAssay (NCI)
